Measured values: patent US12390437B2, “Itaconic acid derivatives and uses thereof intreating an inflammatory disease or a disease associated with an undesirable immune response” (Sitryx Therapeutics Limited, priority 2019, dated 2025)

Tested on: IL-1β cytokine output from THP-1s
Assay: THP-1 AlphaLISA IL-1β cytokine assay
Format: cell-based, human
Conditions: Homo sapiens, THP-1, PMA-differentiated THP-1 cells, LPS 24 hr then Nigericin 1 hour; read-out: IL-1β (IC50)
How it was run: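 AlphaLISA read-out of cytokine released into supernatants of differentiated THP-1 cells. Cells were PMA-treated for 72 h, exposed to compound for 30 min, stimulated with LPS for 24 h, then given nigericin for 1 h before harvest. IC50 values come from normalised concentration-response curves.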

SMILES	IC50 [µM]
C=C(CC(=O)OCCCCCCCC)C(=O)OCC(=O)N(C)CC(=O)O [Example 98, 2-(N-methyl-2-((2-methylene-4-(octyloxy)-4-oxobutanoyl)oxy)acetamido)acetic acid]	2.1
C=C(CC(=O)OC1CCCCCCC1)C(=O)OC1CS(=O)(=O)C1 [Example 54, 4-cyclooctyl 1-(1,1-dioxidothietan-3-yl) 2-methylenesuccinate]	3.9
C=C(CC(=O)OCCCCCCCC)C(=O)OC(C)C(=O)NCC(=O)O (centres unmarked) [Example 102, (2-((2-methylene-4-(octyloxy)-4-oxobutanoyl)oxy)propanoyl)glycine]	1.5
C=C(CC(=O)OCC(C)(C)C)C(=O)OCC(=O)O [Example 92, 2-((2-methylene-4-(neopentyloxy)-4-oxobutanoyl)oxy)acetic acid]	75.3
C=C(CC(=O)OCCCCCC)C(=O)OCC(=O)NS(=O)(=O)N(C)C [Example 118, 1-(2-((N,N-dimethylsulfamoyl)amino)-2-oxoethyl) 4-hexyl 2-methylenesuccinate]	16.2
C=C(CC(=O)OCCCCCCCC)C(=O)OC(C)C(=O)N1CCC[C@H]1C(=O)O (stereo partly drawn) [Example 101, (2-((2-methylene-4-(octyloxy)-4-oxobutanoyl)oxy)propanoyl)-L-proline]	15.2
C=C(CC(=O)OCCCCCC)C(=O)OCCC(=O)O [Example 85, 3-((4-(hexyloxy)-2-methylene-4-oxobutanoyl)oxy)propanoic acid]	22.6

Tested on: IL-6 cytokine output from THP-1s
Assay: THP-1 AlphaLISA IL-6 cytokine assay
Format: cell-based, human
Conditions: Homo sapiens; PMA-differentiated THP-1 cells, LPS 24 hr then Nigericin 1 hour
Description: Measuring Inhibitory Effects on IL-1β and IL-6 Cytokine Output from THP-1s
The cytokine inhibition profiles of compounds of formula (IW-1) were determined in a differentiated THP-1 cell assay. All assays were performed in RPMI-1640 growth medium (Gibco), supplemented with 10% fetal bovine serum (FBS; Gibco), 1% penicillin-streptomycin and 1% sodium pyruvate unless specified otherwise. The IL-1β and IL-6 cytokine inhibition assays were each run in a background of differentiated THP-1 cells as described below. All reagents described were from Sigma-Aldrich unless specified otherwise. Compounds were prepared as 10 mM DMSO stocks.
THP-1 cells were expanded as a suspension up to 80% confluence in appropriate growth medium. Cells were harvested, suspended, and treated with an appropriate concentration of phorbol 12-myristate 13-acetate (PMA) over a 72 hr period (37° C./5% CO2).
Following 72 hrs of THP-1 cell incubation, cellular medium was removed and replaced with fresh growth media containing 1% of FBS. Working concentrations of compounds were prepared separately in 10% FBS treated growth medium and pre-incubated with the cells for 30 minutes (37° C./5% CO2). Following the 30 minute compound pre-incubation, THP-1s were treated with an appropriate concentration of LPS and the THP-1s were subsequently incubated for a 24 hr period (37° C./5% CO2). An appropriate final concentration of Nigericin was then dispensed into the THP-1 plates and incubated for 1 hour (37° C./5% CO2) before THP-1 supernatants were harvested and collected in separate polypropylene 96-well holding plates.
Reagents from each of the IL-1β and IL-6 commercial kits (Perkin Elmer) were prepared and run according to the manufacturer's instructions. Subsequently, fluorescence signal detection in a microplate reader was measured (EnVision® Multilabel Reader, Perkin Elmer).
Percentage inhibition was calculated per cytokine by normalising the sample data to the high and low controls used within each plate (+/−LPS respectively). Percentage inhibition was then plotted against compound concentration and the 50% inhibitory concentration (IC50) was determined from the resultant concentration-response curve.

SMILES	IC50 [µM]
C=C(CC(=O)OCCCCCCCC)C(=O)OCC(=O)N(C)CC(=O)O [Example 98, 2-(N-methyl-2-((2-methylene-4-(octyloxy)-4-oxobutanoyl)oxy)acetamido)acetic acid]	4.3
C=C(CC(=O)OC1CCCCCCC1)C(=O)OC1CS(=O)(=O)C1 [Example 54, 4-cyclooctyl 1-(1,1-dioxidothietan-3-yl) 2-methylenesuccinate]	1.5
C=C(CC(=O)OCCCCCCCC)C(=O)OC(C)C(=O)NCC(=O)O (centres unmarked) [Example 102, (2-((2-methylene-4-(octyloxy)-4-oxobutanoyl)oxy)propanoyl)glycine]	1.1
C=C(CC(=O)OCC(C)(C)C)C(=O)OCC(=O)O [Example 92, 2-((2-methylene-4-(neopentyloxy)-4-oxobutanoyl)oxy)acetic acid]	21.2
C=C(CC(=O)OCCCCCC)C(=O)OCC(=O)NS(=O)(=O)N(C)C [Example 118, 1-(2-((N,N-dimethylsulfamoyl)amino)-2-oxoethyl) 4-hexyl 2-methylenesuccinate]	14
C=C(CC(=O)OCCCCCCCC)C(=O)OC(C)C(=O)N1CCC[C@H]1C(=O)O (stereo partly drawn) [Example 101, (2-((2-methylene-4-(octyloxy)-4-oxobutanoyl)oxy)propanoyl)-L-proline]	4.7
C=C(CC(=O)OCCCCCC)C(=O)OCCC(=O)O [Example 85, 3-((4-(hexyloxy)-2-methylene-4-oxobutanoyl)oxy)propanoic acid]	18.6

Tested on: NRF2
Assay: NRF2 +/-GSH activation assay (DiscoverX PathHunter NRF2 translocation kit, U2OS cells)
Format: cell-based
Conditions: Homo sapiens, U2OS; normalised to dimethyl fumarate 'High' control; GSH condition not stated in Table 5; read-out: NRF2 activation Emax
Description: Measuring Compound Activation Effects on the Anti-Inflammatory Transcription Factor NRF2 in DiscoverX PathHunter NRF2 Translocation Kit
Potency and efficacy of compounds of formula (IW-1) against the target of interest to activate NRF2 (nuclear factor erythroid 2-related factor 2) were determined using the PathHunter NRF2 translocation kit (DiscoverX). The NRF2 translocation assay was run using an engineered recombinant cell line, utilising enzyme fragment complementation to determine activation of the Keap1-NRF2 protein complex and subsequent translocation of NRF2 into the nucleus. Enzyme activity was quantified using a chemiluminescent substrate consumed following the formation of a functional enzyme upon PK-tagged NRF2 translocation into the nucleus.
The assay was run under either +/−GSH (glutathione) conditions to determine the attenuating activities of GSH against target compounds.
Additionally, a defined concentration of dimethyl fumarate was used as the ‘High’ control to normalise test compound activation responses to.
U2OS PathHunter eXpress cells were thawed from frozen prior to plating. Following plating, U2OS cells were incubated for 24 hrs (37° C./5% CO2) in commercial kit provided cell medium.
Following 24 hrs of U2OS incubation, cells were directly treated with an appropriate final concentration of compound, for −GSH conditions, or for +GSH conditions, an intermediate plate containing 6× working concentrations of compound stocks was prepared in a 6 mM working concentration of GSH solution (solubilised in sterile PBS). Following a 30 minute compound-GSH pre-incubation (37° C./5% CO2) for +GSH treatment, plated U2OS cells were incubated with an appropriate final concentration of compound and GSH.
Following compound (+/−GSH) treatment, the U2OS plates were incubated for a further 6 hours (37° C./5% CO2) before detection reagent from the PathHunter NRF2 commercial kit was prepared and added to test plates according to the manufacturer's instructions. Subsequently, the luminescence signal detection in a microplate reader was measured (PHERAstar®, BMG Labtech).
Percentage activation was calculated by normalising the sample data to the high and low controls used within each plate (+/−DMF). Percentage activation/response was then plotted against compound concentration and the 50% activation concentration (EC50) was determined from the plotted concentration-response curve.

SMILES	Emax [%]
C=C(CC(=O)OCCCCCCCC)C(=O)OCC(=O)N(C)CC(=O)O [Example 98, 2-(N-methyl-2-((2-methylene-4-(octyloxy)-4-oxobutanoyl)oxy)acetamido)acetic acid]	193
C=C(CC(=O)OC1CCCCCCC1)C(=O)OC1CS(=O)(=O)C1 [Example 54, 4-cyclooctyl 1-(1,1-dioxidothietan-3-yl) 2-methylenesuccinate]	105
C=C(CC(=O)OCCCCCCCC)C(=O)OC(C)C(=O)NCC(=O)O (centres unmarked) [Example 102, (2-((2-methylene-4-(octyloxy)-4-oxobutanoyl)oxy)propanoyl)glycine]	191
C=C(CC(=O)OCC(C)(C)C)C(=O)OCC(=O)O [Example 92, 2-((2-methylene-4-(neopentyloxy)-4-oxobutanoyl)oxy)acetic acid]	109
C=C(CC(=O)OCCCCCCCC)C(=O)OC(C)C(=O)N1CCC[C@H]1C(=O)O (stereo partly drawn) [Example 101, (2-((2-methylene-4-(octyloxy)-4-oxobutanoyl)oxy)propanoyl)-L-proline]	186
C=C(CC(=O)OCCCCCC)C(=O)OCCC(=O)O [Example 85, 3-((4-(hexyloxy)-2-methylene-4-oxobutanoyl)oxy)propanoic acid]	163

Same assay, conditions: Homo sapiens; U2OS PathHunter cells, 6 hours; GSH condition not stated in Table 5; read-out: NRF2 activation EC50

SMILES	EC50 [µM]
C=C(CC(=O)OCCCCCCCC)C(=O)OCC(=O)N(C)CC(=O)O [Example 98, 2-(N-methyl-2-((2-methylene-4-(octyloxy)-4-oxobutanoyl)oxy)acetamido)acetic acid]	14.7
C=C(CC(=O)OC1CCCCCCC1)C(=O)OC1CS(=O)(=O)C1 [Example 54, 4-cyclooctyl 1-(1,1-dioxidothietan-3-yl) 2-methylenesuccinate]	2.8
C=C(CC(=O)OCCCCCCCC)C(=O)OC(C)C(=O)NCC(=O)O (centres unmarked) [Example 102, (2-((2-methylene-4-(octyloxy)-4-oxobutanoyl)oxy)propanoyl)glycine]	6.5
C=C(CC(=O)OCC(C)(C)C)C(=O)OCC(=O)O [Example 92, 2-((2-methylene-4-(neopentyloxy)-4-oxobutanoyl)oxy)acetic acid]	37.8
C=C(CC(=O)OCCCCCCCC)C(=O)OC(C)C(=O)N1CCC[C@H]1C(=O)O (stereo partly drawn) [Example 101, (2-((2-methylene-4-(octyloxy)-4-oxobutanoyl)oxy)propanoyl)-L-proline]	37.9
C=C(CC(=O)OCCCCCC)C(=O)OCCC(=O)O [Example 85, 3-((4-(hexyloxy)-2-methylene-4-oxobutanoyl)oxy)propanoic acid]	25

Tested on: not listed separately
Assay: Mouse pharmacokinetic study, intravenous dosing
Format: in vivo
Conditions: male, C57BL/6, mouse, iv; plasma, 10 mg/kg i.v., time 0.05 h; read-out: Parent compound concentration following intravenous administration
Description: Pharmacokinetic studies were carried out in 6-8-week-old male C57BL/6 mice having free access to food and water. Intravenous dosing was conducted at 10 mg/kg (5 mL/kg; vehicle: 10% DMSO-90% (25% HP-13-CD in water)) via tail vein injection, with sampling at 3 min, 8 min, 15 min, 30 min, 1, 2, 4, 6 and 8 hours, i.e., 9 time points in total (N=3/time point), using semi-serial bleeding for plasma. Oral compound administration, via gavage, was carried out at 100 mg/kg (10 mL/kg; vehicle: 5% DMSO-95% (0.5% HPMC+0.1% Tween 80 in water)), with sampling at 5 min, 15 min, 30 min, 1, 2, 4, 6, 8 and 24 hours, i.e., 9 time points in total (N=3/time point), using semi-serial bleeding for plasma.
For both intravenous and oral routes, the mice were restrained manually at the designated time points, with ca. 110 μL of blood being taken into K2EDTA tubes via the facial vein. Blood samples were put on ice and centrifuged to obtain plasma samples from which the concentration at each time point was measured by LC-MS/MS.

SMILES	concentration at 0.05 h [ng/mL]
C=C(CC(=O)OCCCCCC)C(=O)OCC(=O)NS(=O)(=O)N(C)C [Example 118, 1-(2-((N,N-dimethylsulfamoyl)amino)-2-oxoethyl) 4-hexyl 2-methylenesuccinate]	3050

Same assay, conditions: male, C57BL/6, mouse, iv; plasma, 10 mg/kg i.v., time 0.133 h; read-out: Parent compound concentration following intravenous administration

SMILES	concentration at 0.133 h [ng/mL]
C=C(CC(=O)OCCCCCC)C(=O)OCC(=O)NS(=O)(=O)N(C)C [Example 118, 1-(2-((N,N-dimethylsulfamoyl)amino)-2-oxoethyl) 4-hexyl 2-methylenesuccinate]	161

Same assay, conditions: male, C57BL/6, mouse, iv; plasma, 10 mg/kg i.v., time 0.25 h; read-out: Parent compound concentration following intravenous administration

SMILES	concentration at 0.25 h [ng/mL]
C=C(CC(=O)OCCCCCC)C(=O)OCC(=O)NS(=O)(=O)N(C)C [Example 118, 1-(2-((N,N-dimethylsulfamoyl)amino)-2-oxoethyl) 4-hexyl 2-methylenesuccinate]	8

Same assay, conditions: male, C57BL/6, mouse, iv; plasma, 10 mg/kg i.v., time 0.5 h; read-out: Parent compound concentration following intravenous administration

SMILES	concentration at 0.5 h [ng/mL]
C=C(CC(=O)OCCCCCC)C(=O)OCC(=O)NS(=O)(=O)N(C)C [Example 118, 1-(2-((N,N-dimethylsulfamoyl)amino)-2-oxoethyl) 4-hexyl 2-methylenesuccinate]	2.4

Same assay, conditions: male, C57BL/6, mouse, iv; plasma, 10 mg/kg i.v., time 1 h; read-out: Parent compound concentration following intravenous administration

SMILES	concentration at 1 h [ng/mL]
C=C(CC(=O)OCCCCCC)C(=O)OCC(=O)NS(=O)(=O)N(C)C [Example 118, 1-(2-((N,N-dimethylsulfamoyl)amino)-2-oxoethyl) 4-hexyl 2-methylenesuccinate]	< 0.8

Same assay, conditions: male, C57BL/6, mouse, iv; plasma, 10 mg/kg i.v., time 2 h; read-out: Parent compound concentration following intravenous administration

SMILES	concentration at 2 h [ng/mL]
C=C(CC(=O)OCCCCCC)C(=O)OCC(=O)NS(=O)(=O)N(C)C [Example 118, 1-(2-((N,N-dimethylsulfamoyl)amino)-2-oxoethyl) 4-hexyl 2-methylenesuccinate]	< 0.8

Same assay, conditions: male, C57BL/6, mouse, iv; plasma, 10 mg/kg i.v., time 4 h; read-out: Parent compound concentration following intravenous administration

SMILES	concentration at 4 h [ng/mL]
C=C(CC(=O)OCCCCCC)C(=O)OCC(=O)NS(=O)(=O)N(C)C [Example 118, 1-(2-((N,N-dimethylsulfamoyl)amino)-2-oxoethyl) 4-hexyl 2-methylenesuccinate]	< 0.8

Same assay, conditions: male, C57BL/6, mouse, iv; plasma, 10 mg/kg i.v., time 6 h; read-out: Parent compound concentration following intravenous administration

SMILES	concentration at 6 h [ng/mL]
C=C(CC(=O)OCCCCCC)C(=O)OCC(=O)NS(=O)(=O)N(C)C [Example 118, 1-(2-((N,N-dimethylsulfamoyl)amino)-2-oxoethyl) 4-hexyl 2-methylenesuccinate]	< 0.8

Same assay, conditions: male, C57BL/6, mouse, iv; plasma, 10 mg/kg i.v., time 8 h; read-out: Parent compound concentration following intravenous administration

SMILES	concentration at 8 h [ng/mL]
C=C(CC(=O)OCCCCCC)C(=O)OCC(=O)NS(=O)(=O)N(C)C [Example 118, 1-(2-((N,N-dimethylsulfamoyl)amino)-2-oxoethyl) 4-hexyl 2-methylenesuccinate]	< 0.8
